≈ marks a conversion by molar mass, not a printed value.
Legend:
Test in all cases: MIC by micro broth dilution
Assay type in all cases: cell-based
[1] = tested on: A. baumannii CCARM 12001; settings: for MIC: Acinetobacter baumannii, CCARM12001, read-out: Minimum inhibitory concentration (MIC)
Experimental: (§1) MIC of DART molecules were determined by micro broth dilution as per CLSI guidelines. Bacterial strains were cultured in Brain Heart Infusion Agar (BHIA) at 37° C. for 24 h. For MIC determination, BHI broth (100 μl) was added to each of the wells of a 96 well plate. 100 μl of broth containing drug was added to the first well (1A to 1H) and thereafter serial (double) dilutions were carried out for up to 10 wells (column 1 to column 10 of the 96 well plate). Bacterial inoculum was prepared by adjusting the bacterial culture turbidity to 0.5 McFarland standard (approximately 1.5×10^8 cells/ml) and further diluted (100 times with sterile BHI broth). Diluted bacterial suspension (100 μl) was added to each well except sterility control wells (column 12 of 96 well plate). The plates were incubated at 37° C. for 24 h. The MIC of the test compound was measured after addition of Alamar blue dye.

[2] = tested on: E. aerogenes NCIM 5139; settings: for MIC: Klebsiella aerogenes, NCIM5139, read-out: Minimum inhibitory concentration (MIC)
Experimental: as §1

[3] = tested on: E. coli MTCC 1687; settings: for MIC: Escherichia coli, MTCC1687, read-out: Minimum inhibitory concentration (MIC)
Experimental: as §1

[4] = tested on: S. aureus ATCC 43300; settings: S. aureus ATCC 43300; for MIC: Staphylococcus aureus, ATCC43300, read-out: Minimum inhibitory concentration (MIC)
Experimental: as §1

[5] = tested on: S. aureus CCARM 3505; settings: for MIC: Staphylococcus aureus, CCARM3505, read-out: Minimum inhibitory concentration (MIC)
Experimental: as §1

[6] = tested on: E. coli BAA 196; settings: for MIC: Escherichia coli, BAA196, read-out: Minimum inhibitory concentration (MIC)
Experimental: as §1

[7] = tested on: E. aerogenes M2-1; settings: for MIC: Klebsiella aerogenes, M21, read-out: Minimum inhibitory concentration (MIC)
Experimental: as §1

[8] = tested on: E. faecium NCIM 5421; settings: for MIC: Enterococcus faecium, NCIM5421, read-out: Minimum inhibitory concentration (MIC)
Experimental: as §1

[9] = tested on: P. aeruginosa CCARM 2204; settings: Pseudomonas aeruginosa, CCARM2204, read-out: Minimum inhibitory concentration (MIC)
Experimental: as §1

[10] = tested on: A. baumannii ATCC 1906; settings: for MIC: Acinetobacter baumannii, ATCC1906, read-out: Minimum inhibitory concentration (MIC)
Experimental: as §1

[11] = tested on: S. epidermidis S12-1; settings: for MIC: Staphylococcus epidermidis, S121, read-out: Minimum inhibitory concentration (MIC)
Experimental: as §1

[12] = tested on: P. aeruginosa CCARM 2161; settings: Pseudomonas aeruginosa, CCARM2161, read-out: Minimum inhibitory concentration (MIC)
Experimental: as §1

[13] = tested on: P. aeruginosa ATCC 27853; settings: for MIC: Pseudomonas aeruginosa, ATCC27853, read-out: Minimum inhibitory concentration (MIC)
Experimental: as §1

[14] = tested on: A. baumannii CCARM 12020; settings: for MIC: Acinetobacter baumannii, CCARM12020, read-out: Minimum inhibitory concentration (MIC)
Experimental: as §1

[15] = tested on: S. epidermidis ATCC 35984; settings: for MIC: Staphylococcus epidermidis, ATCC35984, read-out: Minimum inhibitory concentration (MIC)
Experimental: as §1

[16] = tested on: S. aureus MTCC 6908; settings: for MIC: Staphylococcus aureus, MTCC6908, read-out: Minimum inhibitory concentration (MIC)
Experimental: as §1

[17] = tested on: K. pneumonia ATCC 13883; settings: for activity in words: Klebsiella pneumonia (susceptible); for MIC: Klebsiella pneumoniae, ATCC13883, read-out: Minimum inhibitory concentration (MIC)
Experimental: as §1

SMILES	MIC [1]	MIC [2]	MIC [3]	MIC [4]	MIC [5]	MIC [6]	MIC [7]	MIC [8]	MIC [9]	MIC [10]	MIC [11]	MIC [12]	MIC [13]	MIC [14]	MIC [15]	MIC [16]	MIC ([17]; K. pneumonia ATCC 13883)	activity in words [17]	other results
Cc1ncc([N+](=O)[O-])n1CC(O)CN1CCN(c2cc3c(cc2F)c(=O)c(C(=O)O)c2n3C(C)S2)CC1 (stereo not drawn) [Compound 1]	> 16 µg/mL	> 16 µg/mL	16 µg/mL (≈ 30 µM)	1 µg/mL (≈ 1.88 µM)	32 µg/mL (≈ 60.1 µM)	16 µg/mL (≈ 30 µM)	> 16 µg/mL	> 16 µg/mL	> 16 µg/mL	> 16 µg/mL	> 64 µg/mL	> 16 µg/mL	> 16 µg/mL	> 16 µg/mL	0.13 µg/mL (≈ 0.244 µM)	1.5 µg/mL (≈ 2.82 µM)	–	–	–
CC1Sc2c(C(=O)O)c(=O)c3cc(F)c(N4CCN(CC(=O)Nc5ncc([N+](=O)[O-])s5)CC4)cc3n21 (stereo not drawn) [Compound 6, 6-Fluoro-1-methyl-7-(4-(2-((5-nitrothiazol-2-yl)amino)-2-oxoethyl)piperazin-1-yl)-4-oxo-1H,4H-[1,3]-thiazeto[3,2-a]quinoline-3-carboxylic acid]	–	4 µg/mL (≈ 7.48 µM)	1 µg/mL (≈ 1.87 µM)	< 0.13 µg/mL	4 µg/mL (≈ 7.48 µM)	16 µg/mL (≈ 29.9 µM)	4 µg/mL (≈ 7.48 µM)	0.25 µg/mL (≈ 0.468 µM)	–	8 µg/mL (≈ 15 µM)	4 µg/mL (≈ 7.48 µM)	–	8 µg/mL (≈ 15 µM)	–	< 0.03 µg/mL	0.1 µg/mL (≈ 0.187 µM)	0.25 µg/mL (≈ 0.468 µM)	active	–
O=C(N[C@@H]1CCCCN(c2c(F)cc3c(=O)c(C(=O)O)cn(C4CC4)c3c2Cl)C1)c1ccc([N+](=O)[O-])o1 [Compound 16]	–	–	–	–	–	–	–	–	–	–	–	–	–	–	–	–	–	active	Minimum inhibitory concentration (MIC) [1]: 16 µg/mL (≈ 30 µM); Minimum inhibitory concentration (MIC) [2]: 2 µg/mL (≈ 3.75 µM); Minimum inhibitory concentration (MIC) [3]: 4 µg/mL (≈ 7.51 µM); Minimum inhibitory concentration (MIC) ([17]; K. pneumonia ATCC 13883): 0.25 µg/mL (≈ 0.469 µM); Minimum inhibitory concentration (MIC) [4]: <0.01 µg/mL; Minimum inhibitory concentration (MIC) [5]: 0.5 µg/mL (≈ 0.938 µM); Minimum inhibitory concentration (MIC) [6]: >16 µg/mL; Minimum inhibitory concentration (MIC) [7]: 4 µg/mL (≈ 7.51 µM); Minimum inhibitory concentration (MIC) [8]: 0.12 µg/mL (≈ 0.225 µM); Minimum inhibitory concentration (MIC) [10]: .05 µg/mL (≈ 0.0938 µM); Minimum inhibitory concentration (MIC) [11]: 0.13 µg/mL (≈ 0.244 µM); Minimum inhibitory concentration (MIC) [13]: 2 µg/mL (≈ 3.75 µM); Minimum inhibitory concentration (MIC) [14]: >16 µg/mL; Minimum inhibitory concentration (MIC) [15]: <0.03 µg/mL; Minimum inhibitory concentration (MIC) [16]: 0.25 µg/mL (≈ 0.469 µM)
CC1Sc2c(C(=O)O)c(=O)c3cc(F)c(N4CCN(Cc5nc6ccc([N+](=O)[O-])cc6[nH]5)CC4)cc3n21 (stereo not drawn) [Compound 18, 6-Fluoro-1-methyl-7-(4-((6-nitro-1H-benzo[d]imidazol-2-yl)methyl)piperazin-1-yl)-4-oxo-1H,4H-[1,3]thiazeto[3,2-a]quinoline-3-carboxylic acid]	–	0.25 µg/mL (≈ 0.477 µM)	> 4 µg/mL	1 µg/mL (≈ 1.91 µM)	> 4 µg/mL	> 4 µg/mL	> 16 µg/mL	0.5 µg/mL (≈ 0.953 µM)	> 16 µg/mL	1 µg/mL (≈ 1.91 µM)	> 16 µg/mL	> 16 µg/mL	> 16 µg/mL	–	0.25 µg/mL (≈ 0.477 µM)	1 µg/mL (≈ 1.91 µM)	0.12 µg/mL (≈ 0.229 µM)	active	–

Further lines, with some results ahead:

MIC [1]	MIC [2]	MIC [3]	MIC [4]	MIC [5]	MIC [6]	MIC [7]	MIC [8]	MIC [9]	MIC [10]	MIC [11]	MIC [12]	MIC [13]	MIC [14]	MIC [15]	MIC [16]	MIC ([17]; K. pneumonia ATCC 13883)	SMILES	activity in words [17]	other results
–	0.5 µg/mL (≈ 1.01 µM)	1 µg/mL (≈ 2.02 µM)	0.5 µg/mL (≈ 1.01 µM)	> 16 µg/mL	> 16 µg/mL	4 µg/mL (≈ 8.09 µM)	1 µg/mL (≈ 2.02 µM)	–	8 µg/mL (≈ 16.2 µM)	> 16 µg/mL	–	4 µg/mL (≈ 8.09 µM)	–	0.13 µg/mL (≈ 0.263 µM)	8 µg/mL (≈ 16.2 µM)	0.25 µg/mL (≈ 0.506 µM)	CC1Sc2c(C(=O)O)c(=O)c3cc(F)c(N4CCN(Cc5nc6ccc(N)cc6[nH]5)CC4)cc3n21 (stereo not drawn) [Compound 20, 7-(4-((6-Amino-1H-benzo[d]imidazol-2-yl)methyl)piperazin-1-yl)-6-fluoro-1-methyl-4-oxo-1H,4H-[1,3]thiazeto[3,2-a]quinoline-3-carboxylic acid]	active	–
> 16 µg/mL	16 µg/mL (≈ 29.2 µM)	8 µg/mL (≈ 14.6 µM)	0.13 µg/mL (≈ 0.237 µM)	> 16 µg/mL	> 16 µg/mL	16 µg/mL (≈ 29.2 µM)	0.25 µg/mL (≈ 0.456 µM)	> 16 µg/mL	16 µg/mL (≈ 29.2 µM)	> 16 µg/mL	> 16 µg/mL	16 µg/mL (≈ 29.2 µM)	> 16 µg/mL	< 0.03 µg/mL	0.25 µg/mL (≈ 0.456 µM)	0.5 µg/mL (≈ 0.912 µM)	CC1Sc2c(C(=O)O)c(=O)c3cc(F)c(N4CCN(Cc5nc6cc(Cl)c(Cl)cc6[nH]5)CC4)cc3n21 (stereo not drawn) [Compound 21, 7-(4-((5,6-Dichloro-1H-benzo[d]imidazol-2-yl)methyl)piperazin-1-yl)-6-fluoro-1-methyl-4-oxo-1H,4H-[1,3]thiazeto[3,2-a]quinoline-3-carboxylic acid]	active	–
–	1 µg/mL (≈ 2.2 µM)	2 µg/mL (≈ 4.4 µM)	0.25 µg/mL (≈ 0.55 µM)	16 µg/mL (≈ 35.2 µM)	4 µg/mL (≈ 8.8 µM)	8 µg/mL (≈ 17.6 µM)	0.06 µg/mL (≈ 0.132 µM)	–	2 µg/mL (≈ 4.4 µM)	8 µg/mL (≈ 17.6 µM)	–	8 µg/mL (≈ 17.6 µM)	–	0.13 µg/mL (≈ 0.286 µM)	0.5 µg/mL (≈ 1.1 µM)	0.12 µg/mL (≈ 0.264 µM)	CC1Sc2c(C(=O)O)c(=O)c3cc(F)c(N4CCN(C(=O)c5ccccn5)CC4)cc3n21 (stereo not drawn) [Compound 31, 6-Fluoro-1-methyl-4-oxo-7-(4-picolinoylpiperazin-1-yl)-1H,4H-[1,3]thiazeto[3,2-a]quinoline-3-carboxylic acid]	active	–
> 16 µg/mL	16 µg/mL (≈ 30 µM)	4 µg/mL (≈ 7.5 µM)	0.06 µg/mL (≈ 0.112 µM)	8 µg/mL (≈ 15 µM)	8 µg/mL (≈ 15 µM)	16 µg/mL (≈ 30 µM)	–	> 16 µg/mL	2 µg/mL (≈ 3.75 µM)	4 µg/mL (≈ 7.5 µM)	> 16 µg/mL	16 µg/mL (≈ 30 µM)	> 16 µg/mL	0.13 µg/mL (≈ 0.244 µM)	0.5 µg/mL (≈ 0.937 µM)	0.5 µg/mL (≈ 0.937 µM)	CC1Sc2c(C(=O)O)c(=O)c3cc(F)c(N4CCN(C(=O)c5cccc(Br)n5)CC4)cc3n21 (stereo not drawn) [Compound 32, 7-(4-(6-Bromopicolinoyl)piperazin-1-yl)-6-fluoro-1-methyl-4-oxo-1H,4H-[1,3]thiazeto[3,2-a]-quinoline-3-carboxylic acid]	active	–
> 16 µg/mL	1 µg/mL (≈ 2.3 µM)	0.5 µg/mL (≈ 1.15 µM)	4 µg/mL (≈ 9.21 µM)	> 16 µg/mL	> 16 µg/mL	1 µg/mL (≈ 2.3 µM)	> 16 µg/mL	> 16 µg/mL	16 µg/mL (≈ 36.8 µM)	> 16 µg/mL	–	4 µg/mL (≈ 9.21 µM)	> 16 µg/mL	4 µg/mL (≈ 9.21 µM)	8 µg/mL (≈ 18.4 µM)	0.12 µg/mL (≈ 0.276 µM)	CC1Sc2c(C(=O)O)c(=O)c3cc(F)c(N4CCN(C(=O)NC(=N)N)CC4)cc3n21 (stereo not drawn) [Compound 44, 7-(4-(Carbamimidoylcarbamoyl)piperazin-1-yl)-6-fluoro-1-methyl-4-oxo-1H,4H-[1,3]thiazeto[3,2-a]quinoline-3-carboxylic acid]	–	–

From US10570152B2, “Antibacterial therapeutics and prophylactics” (VYOME BIOSCIENCES PVT. LTD., priority 2015, dated 2020)
